Measured values reported in PubChem BioAssay (NCI).
Where “and” joins values, the source holds several entries; their conditions need not be identical. Equal entries are not always repeated.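 48-hour exposure; five concentrations; linearly interpolated endpoints. The concentration for 50% growth inhibition is given as GI50. TGI is the concentration that stops growth completely.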

Assays:
Assay in all cases: NCI-60 cell line screen, 48 h
A498 renal = system: A498 renal
BT-549 breast = system: BT-549 breast
HS 578T breast = system: HS 578T breast
HT29 colon = system: HT29 colon
K-562 leukemia = system: K-562 leukemia
MCF7 breast = system: MCF7 breast
NCI-H460 lung = system: NCI-H460 lung
SN12C renal = system: SN12C renal
SNB-19 CNS = system: SNB-19 CNS
HCT-116 colon = system: HCT-116 colon

CN(Cc1cnc2nc(N)nc(N)c2n1)c1ccc(C(=O)N[C@@H](CCC(=O)O)C(=O)O)cc1
GI50 (A498 renal): 1.05 µM | TGI (A498 renal): 116 µM | TGI (BT-549 breast): > 250 µM | TGI (HS 578T breast): > 250 µM | TGI (HT29 colon): 240 µM and > 250 µM | TGI (K-562 leukemia): 206 µM and > 250 µM | TGI (MCF7 breast): > 250 µM | GI50 (NCI-H460 lung): 0.00707 µM | TGI (NCI-H460 lung): > 245 µM | TGI (SN12C renal): 181 µM and > 250 µM | TGI (SNB-19 CNS): 211 µM and > 250 µM

COc1ccc(-n2c(N)c(C#N)[nH]c2=O)cc1
TGI (A498 renal): > 10 µM | TGI (HCT-116 colon): > 10 µM | TGI (HS 578T breast): > 10 µM | TGI (HT29 colon): > 10 µM | TGI (K-562 leukemia): > 10 µM | TGI (NCI-H460 lung): > 10 µM | TGI (SN12C renal): > 10 µM | TGI (SNB-19 CNS): > 10 µM

CN(C)c1ccc(C=NCC2CCCN3CCCCC23)cc1 (stereo unspecified)
TGI (BT-549 breast): > 100 µM | TGI (HCT-116 colon): > 100 µM | TGI (HS 578T breast): > 100 µM | TGI (MCF7 breast): > 100 µM | TGI (NCI-H460 lung): > 100 µM | TGI (SNB-19 CNS): > 100 µM

Cc1ccc2c(c1)C(=O)c1nc(C)ccc1C2=O
TGI (A498 renal): > 100 µM | TGI (BT-549 breast): > 100 µM | TGI (HCT-116 colon): 60.6 µM | TGI (HS 578T breast): > 100 µM | TGI (HT29 colon): 83 µM | TGI (K-562 leukemia): > 100 µM | TGI (MCF7 breast): > 100 µM | TGI (SN12C renal): 87.9 µM | TGI (SNB-19 CNS): 63.7 µM

CC1=NC2=Nc3nc(C)cc[n+]3CN2C=C1
TGI (A498 renal): > 100 µM | TGI (BT-549 breast): > 100 µM | TGI (HCT-116 colon): > 100 µM | TGI (HS 578T breast): > 100 µM | TGI (HT29 colon): > 100 µM | TGI (MCF7 breast): > 100 µM | TGI (NCI-H460 lung): > 100 µM | TGI (SN12C renal): > 100 µM | TGI (SNB-19 CNS): > 100 µM

c1ccc2c(c1)c1c(n2CCOCCN2CCCC2)CCCC1
TGI (HCT-116 colon): 32.5 µM | TGI (HS 578T breast): 45.3 µM | TGI (HT29 colon): 47.5 µM | TGI (K-562 leukemia): 31.5 µM | TGI (MCF7 breast): 31.3 µM | TGI (NCI-H460 lung): 30.5 µM | TGI (SN12C renal): 33.6 µM

CCOc1ccc2[nH]c3c(C)c4ccncc4c(C)c3c2c1
TGI (A498 renal): 3.2 µM | TGI (HCT-116 colon): 1.78 µM | TGI (HT29 colon): 2.18 µM | TGI (K-562 leukemia): > 100 µM | TGI (NCI-H460 lung): 1.68 µM | TGI (SN12C renal): 1.93 µM | TGI (SNB-19 CNS): 2.77 µM

Clc1ccc(C2=NN=C3C(c4ccccc4)=Nc4ccccc4N3C2)cc1
TGI (A498 renal): > 100 µM | TGI (BT-549 breast): > 100 µM | TGI (HCT-116 colon): > 100 µM | TGI (HS 578T breast): 31.6 µM | TGI (HT29 colon): > 25.8 µM | TGI (K-562 leukemia): > 100 µM | TGI (MCF7 breast): > 100 µM | TGI (SN12C renal): > 100 µM | TGI (SNB-19 CNS): > 100 µM

c1cc2c(cc1NC1=NCCO1)OCO2
TGI (A498 renal): > 100 µM | TGI (HCT-116 colon): > 100 µM | TGI (HS 578T breast): > 100 µM | TGI (HT29 colon): > 100 µM | TGI (K-562 leukemia): > 100 µM | TGI (MCF7 breast): > 100 µM | TGI (NCI-H460 lung): > 100 µM | TGI (SN12C renal): > 100 µM | TGI (SNB-19 CNS): > 100 µM

CCN1CCC(O)(c2ccc(Oc3ccc(F)cc3)cc2)C(C(=O)c2ccc(Oc3ccc(F)cc3)cc2)C1 (stereo unspecified)
TGI (BT-549 breast): 29.1 µM | TGI (HCT-116 colon): 27.4 µM | TGI (HS 578T breast): 38.4 µM | TGI (HT29 colon): 23.6 µM | TGI (K-562 leukemia): > 100 µM | TGI (MCF7 breast): 26 µM | TGI (SN12C renal): 27.5 µM | TGI (SNB-19 CNS): 29.6 µM

Nc1[nH]nc(Nc2ccc(Cl)cc2)c1P(=O)(c1ccccc1)c1ccccc1
TGI (A498 renal): > 100 µM | TGI (HS 578T breast): 37.2 µM | TGI (HT29 colon): 65.2 µM | TGI (K-562 leukemia): > 100 µM | TGI (MCF7 breast): > 100 µM | TGI (NCI-H460 lung): > 100 µM | TGI (SNB-19 CNS): 92.4 µM

CN(C)c1ccc(/C=C2\N=C(NNc3ccccc3)NC2=O)cc1
TGI (A498 renal): 42.1 µM | TGI (BT-549 breast): 83.2 µM | TGI (HCT-116 colon): > 100 µM | TGI (HS 578T breast): > 100 µM | TGI (HT29 colon): > 100 µM | TGI (MCF7 breast): 41.9 µM | TGI (NCI-H460 lung): 52.7 µM | TGI (SN12C renal): 44.6 µM | TGI (SNB-19 CNS): > 100 µM

CCOC(=O)c1nnsc1N/N=C\c1ccc([N+](=O)[O-])cc1
TGI (BT-549 breast): > 100 µM | TGI (HCT-116 colon): > 100 µM | TGI (HS 578T breast): > 100 µM | TGI (HT29 colon): > 100 µM | TGI (K-562 leukemia): > 100 µM | TGI (MCF7 breast): > 100 µM | TGI (NCI-H460 lung): > 100 µM | TGI (SN12C renal): > 100 µM | TGI (SNB-19 CNS): > 100 µM

CC(=O)OCC1OC(n2cc(F)c(=O)[nH]c2=O)C(NC(=O)OCc2ccccc2)C(OC(C)=O)C1OC(C)=O (stereo unspecified)
TGI (A498 renal): > 100 µM | TGI (HCT-116 colon): > 100 µM | TGI (HT29 colon): > 100 µM | TGI (K-562 leukemia): > 100 µM | TGI (MCF7 breast): > 100 µM | TGI (NCI-H460 lung): > 100 µM | TGI (SN12C renal): > 100 µM | TGI (SNB-19 CNS): > 100 µM

CN(C(=O)C12C3C4C5C3C1(C(=O)C13C6C7C8C6C1C8C73)C5C42)C(C)(C)C (stereo unspecified)
TGI (A498 renal): > 50 µM | TGI (HCT-116 colon): 18.5 µM | TGI (HT29 colon): > 50 µM | TGI (K-562 leukemia): > 47.3 µM | TGI (NCI-H460 lung): > 50 µM | TGI (SN12C renal): > 50 µM | TGI (SNB-19 CNS): > 50 µM

NC1=C(NC(=O)Cc2ccccc2F)C(=O)c2ccccc2C1=O
TGI (HCT-116 colon): > 100 µM | TGI (HT29 colon): > 100 µM | TGI (K-562 leukemia): > 100 µM | TGI (NCI-H460 lung): > 100 µM | TGI (SN12C renal): > 100 µM | TGI (SNB-19 CNS): > 100 µM

C=C1C(=O)O[C@H]2C[C@@]3(COC(C)=O)C=COC=C(COC(=O)C(C)C)C3CC12 (stereo partly specified)
TGI (BT-549 breast): > 100 µM | TGI (HCT-116 colon): > 100 µM | TGI (HS 578T breast): > 100 µM | TGI (HT29 colon): > 100 µM | TGI (K-562 leukemia): > 100 µM | TGI (MCF7 breast): > 100 µM | TGI (NCI-H460 lung): > 100 µM | TGI (SN12C renal): > 100 µM | TGI (SNB-19 CNS): > 100 µM

CN(C)CCNC(=O)c1ccc(NCCCN(C)CCCNc2ccc(C(=O)NCCN(C)C)c3[nH]c4ccccc4c(=O)c23)c2c(=O)c3ccccc3[nH]c12
TGI (A498 renal): 0.502 µM | TGI (BT-549 breast): 1.63 µM | TGI (HCT-116 colon): 0.205 µM | TGI (HT29 colon): 0.236 µM | TGI (MCF7 breast): 0.44 µM | TGI (NCI-H460 lung): 0.12 µM | TGI (SN12C renal): 0.397 µM | TGI (SNB-19 CNS): 0.419 µM

N#CN/C(N)=N/C/N=C(\N)NC#N
TGI (A498 renal): > 100 µM | TGI (HCT-116 colon): > 100 µM | TGI (HT29 colon): > 100 µM | TGI (K-562 leukemia): > 100 µM | TGI (NCI-H460 lung): > 100 µM | TGI (SN12C renal): > 100 µM | TGI (SNB-19 CNS): > 100 µM

O=C(/C=C/c1ccccc1)CSc1ncn[nH]1
TGI (BT-549 breast): > 100 µM | TGI (HCT-116 colon): > 100 µM | TGI (HT29 colon): > 100 µM | TGI (K-562 leukemia): > 100 µM | TGI (MCF7 breast): > 100 µM | TGI (NCI-H460 lung): > 100 µM | TGI (SN12C renal): > 100 µM | TGI (SNB-19 CNS): > 100 µM

O=C1CC2CC3OC3[C@H]3c4cc5c(cc4C(=O)N1C23)OCO5 (stereo partly specified)
TGI (HCT-116 colon): > 100 µM | TGI (HT29 colon): > 100 µM | TGI (K-562 leukemia): > 100 µM | TGI (NCI-H460 lung): > 100 µM | TGI (SN12C renal): > 100 µM | TGI (SNB-19 CNS): > 100 µM

CC1(C)OC2[C@@H](CO[C@@]3([C@@H](O)CCO)OC(C)(C)O[C@@H]23)O1 (stereo partly specified)
TGI (BT-549 breast): > 100 µM | TGI (HCT-116 colon): > 100 µM | TGI (HT29 colon): > 100 µM | TGI (K-562 leukemia): > 100 µM | TGI (MCF7 breast): > 100 µM | TGI (NCI-H460 lung): > 100 µM | TGI (SN12C renal): > 100 µM | TGI (SNB-19 CNS): > 100 µM

O=C1CC(c2ccccc2)C2(C(=O)NC(=S)NC2=O)C(c2ccccc2)C1 (stereo unspecified)
TGI (BT-549 breast): > 75 µM | TGI (HCT-116 colon): > 75 µM | TGI (HT29 colon): > 75 µM | TGI (K-562 leukemia): > 75 µM | TGI (MCF7 breast): > 75 µM | TGI (NCI-H460 lung): > 75 µM | TGI (SN12C renal): > 75 µM | TGI (SNB-19 CNS): > 75 µM

CCOC(=O)c1c(N=P(c2ccccc2)(c2ccccc2)c2ccccc2)nnc(-c2ccccc2)c1-c1ccccc1
TGI (A498 renal): 99.3 µM | TGI (HCT-116 colon): > 100 µM | TGI (HT29 colon): > 100 µM | TGI (K-562 leukemia): > 100 µM | TGI (MCF7 breast): > 100 µM | TGI (NCI-H460 lung): > 100 µM | TGI (SN12C renal): > 100 µM | TGI (SNB-19 CNS): > 100 µM
